What all share (test): DTP human tumour cell line panel, 48 h
The subject of experiment [1] is A549 NSCLC.
Experiment [2] concerns K-562 leukemia.
Experiment [3] concerns RPMI-8226 leukemia.
Experiment [4] relates to SK-MEL-28 melanoma.
Experiment [5] has as its system SK-OV-3 ovarian.
For experiment [6], the system named is SN12C renal.
In experiment [7] the test system is UACC-257 melanoma.
For experiment [8], the system named is TK-10 renal.
Experiment [9] relates to MDA-MB-435.
The subject of experiment [10] is NCI-H522 lung.

The TGI is the concentration at which net growth stops. A low value points to greater sensitivity of the cells. As usually defined, the GI50 is the concentration at which growth is held to half of that of the control.

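Grown in 96-well plates, cells were treated for 48 hours with each compound at five concentrations. Insufficient inhibition: endpoint recorded as highest concentration tested. GI50 is the concentration that inhibits growth by half. TGI is the concentration that stops growth completely.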

On to `COc1ccc2nc3c(C(=O)NCCN(C)C)cccc3cc2c1`, for which the TGI was 5.26 µM in experiment [1]; 17.1 µM in experiment [2]; 6.23 µM in [3]; 8.79 µM in experiment [4]; 7.3 µM in experiment [5]; 6.93 µM in [6]. In addition, the TGI in [7] amounted to 5.01 µM.

`COc1nc2[nH]ccc2c(=O)[nH]1`: the TGI in experiment [1], in experiment [2], in experiment [3], in experiment [4], in experiment [6] and in experiment [8] was more than 100 µM in each case. In [7], this compound yielded a concentration for total growth inhibition (TGI) of more than 100 µM.

For the compound `CC(C)(C)OC(=O)n1c2ccccc2c2c(=O)nc(N3CCCCC3)sc21`, the TGI in experiment [1], in experiment [2], in experiment [9], in experiment [10], in experiment [3] and in [4] was more than 100 µM throughout. Further, the TGI in experiment [5], in [6], in experiment [8] and in [7] was more than 100 µM each time.

Take `Nc1c(C(=O)O)nnc2cc(Cl)c(Cl)cc12`: the TGI in [1], in [2], in [9], in experiment [10], in experiment [3] and in experiment [5] was more than 100 µM throughout. Besides, the TGI in [6], in experiment [8] and in [7] was more than 100 µM each time.

As to `COc1cc2oc(=O)ccc2cc1C(=O)CC(C)C`, the TGI in experiment [1] is more than 100 µM; in [2] it was more than 100 µM; in experiment [9], more than 100 µM; in [10], 56.4 µM; in experiment [3], more than 100 µM; in experiment [4] it was more than 100 µM. In addition, the TGI in experiment [5], in [6], in experiment [8] and in experiment [7] was more than 100 µM each time.

`CC(=O)OC1CC[C@@]2(C)C(=CC[C@@H]3[C@@H]2CC[C@]2(C)Nc4nn(S(C)(=O)=O)cc4C[C@@H]32)C1` (stereo partly specified): the TGI was more than 100 µM in experiment [2]; 50.1 µM in experiment [9]; more than 100 µM in experiment [10]; more than 100 µM in [3]; more than 100 µM in [4]; more than 100 µM in experiment [5]. Further, the TGI in experiment [6] is more than 100 µM.

As to `N#CC12Cc3cc4c(cc3-c3cccc(c31)CCN2C(=O)c1ccccc1)OCO4` (stereo unspecified), the TGI in [1], in experiment [2], in experiment [3], in experiment [4], in experiment [5] and in [6] was more than 100 µM throughout. The TGI in [8] and in [7] was more than 100 µM throughout.

For the compound `C[N+]1(CCC(=O)c2ccco2)CC2CCC(CC2)C1` (stereo unspecified), the TGI in experiment [1], in [2], in experiment [9], in experiment [10], in experiment [3] and in experiment [4] was more than 100 µM in each case. The TGI in experiment [6], in [8] and in experiment [7] was more than 100 µM each time.

In the case of `O=c1ccc2nc3cc(Br)ccc3sc-2c1`, the total growth inhibition concentration (TGI) in experiment [1], in [2], in [10], in experiment [4], in [5] and in experiment [6] was more than 100 µM throughout. Besides, the TGI in experiment [8] and in [7] was more than 100 µM throughout.

Take `O=C(O)c1ccc(C(=O)c2ccccc2C(=O)O)cc1C(=O)O`: the TGI in experiment [1], in experiment [2], in [9], in experiment [10], in experiment [3] and in experiment [4] was more than 100 µM in each case. In addition, the TGI in experiment [5], in experiment [6], in [8] and in experiment [7] was more than 100 µM in each case.

Turning to `COCCNCc1ccc(-c2cc3nccc(Oc4ccc(NC(=S)NC(=O)Cc5ccc(F)cc5)cc4F)c3s2)nc1`, the GI50 is 1.72 µM in experiment [1]; 2.51 µM in experiment [10]; 2.04 µM in [3]; 18.5 µM in experiment [5]; 2.45 µM in experiment [8]; 1.84 µM in experiment [7]. In addition, the TGI in experiment [1] worked out at 3.29 µM; in experiment [10] it was 6.5 µM; in experiment [3] it was 5.13 µM; in [5] it was 34.4 µM; in [8], 5.08 µM; in experiment [7], 3.52 µM.

Consider `CN(C)c1ccc(C=Nc2ccc(Oc3ccc(Cl)cc3)c(Cl)c2)cc1`, for which the TGI in experiment [1] is 53.4 µM; in experiment [9] it was more than 100 µM; in experiment [10], 31.4 µM; in experiment [3], 72.3 µM; in [4], 48.6 µM; in experiment [5], 55.9 µM. Moreover, the TGI is 43.6 µM in [6], more than 100 µM in experiment [8] and 44.6 µM in experiment [7].

The values above are taken from PubChem BioAssay (NCI).
